Assay results reported in patent US12503436B2, “Compounds and compositions for treating conditions associated with STING activity” (NOVARTIS PHARMA AG, priority 2021, dated 2025).

Molecular target: STING (Homo sapiens, UniProt Q86WV6, G230A/H232R/R293Q/R71H)
Test: STING reporter assay in THP1-Dual KO-IFNAR2 cells (2′3′cGAMP stimulation, luciferase reporter)
Assay type: cell-based
Conditions: 15 μM 2′3′cGAMP stimulation, 24 h, read-out: Pharmaron, THP1_IFNAR2 STING 24 h Luci Normalized: GeoMean EC50
Summary of the method: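 THP1-Dual KO-IFNAR2 cells (2×10E6 cells/mL) with compounds at 0.0017-100 μM final, stimulated with 15 μM final 2′3′cGAMP delivered by Lipofectamine 2000; 24 h at 37 °C. Luciferase in supernatant read with QUANTI-Luc Plus; EC50 derived from luminescence.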

Chain of STING (Q86WV6 whole entry R71H/G230A/H232R/R293Q): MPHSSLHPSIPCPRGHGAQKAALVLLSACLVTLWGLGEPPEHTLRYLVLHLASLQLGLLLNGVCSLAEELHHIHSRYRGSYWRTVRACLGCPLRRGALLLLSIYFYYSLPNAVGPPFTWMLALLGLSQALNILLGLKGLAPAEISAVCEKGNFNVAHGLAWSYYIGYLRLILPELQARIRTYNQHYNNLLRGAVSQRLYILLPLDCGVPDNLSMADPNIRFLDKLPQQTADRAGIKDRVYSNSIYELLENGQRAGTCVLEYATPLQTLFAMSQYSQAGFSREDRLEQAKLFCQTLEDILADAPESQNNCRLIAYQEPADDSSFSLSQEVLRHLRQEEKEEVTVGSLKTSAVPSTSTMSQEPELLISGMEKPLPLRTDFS

SMILES	EC50 [µM]
N#CC1CCC1C(=O)Nc1c[nH]c2ccc(O[C@H]3C[C@H](c4ccc(C(F)(F)F)cc4)C3)cc12 (stereo partly drawn) [Compound 467, 2-cyano-N-{5-[(1R,3R)-3-[4-(trifluoromethyl)phenyl]cyclobutoxy]-1H-indol-3-yl}cyclobutane-1-carboxamide]	0.2 to 1
COCC1(C(=O)Nc2c[nH]c3ccc(O[C@H]4C[C@H](c5ccc(C(F)(F)F)cc5)C4)cc23)CC1 [Compound 468, l-(methoxymethyl)-N-{5-[(1R,3R)-3-[4-(trifluoromethyl)phenyl]cyclobutoxy]-1H-indol-3-yl}cyclopropane-1-carboxamide]	0.2 to 1
CC1(F)CC(C(=O)Nc2c[nH]c3ccc(O[C@H]4C[C@H](c5ccc(C(F)(F)F)cc5)C4)cc23)C1 (stereo partly drawn) [Compound 469, 3-fluoro-3-methyl-N-{5-[(1R,3R)-3-[4-(trifluoromethyl)phenyl]cyclobutoxy]-1H-indol-3-yl}cyclobutane-1-carboxamide]	0.2 to 1
CC(=O)Nc1c[nH]c2ccc(CCOc3ccc(F)c(C(F)(F)F)c3)cc12 [Compound 470, N-(5-{2-[4-fluoro-3-(trifluoromethyl)phenoxy]ethyl}-1H-indol-3-yl)acetamide]	0.2 to 1
CC(=O)Nc1c[nH]c2ccc(CCOc3ccc(OC(F)(F)F)nc3)cc12 [Compound 471, N-[5-(2-{[6-(trifluoromethoxy)pyridin-3-yl]oxy}ethyl)-1H-indol-3-yl]acetamide]	0.2 to 1
CC(=O)Nc1c[nH]c2ccc(OCC3CCC(C(F)(F)F)CC3)cc12 (stereo not drawn) [Compound 472, N-(5-((4-(trifluoromethyl)cyclohexyl)methoxy)-1H-indol-3-yl)acetamide]	0.2 to 1
CC(=O)Nc1c[nH]c2ccc(OC3Cc4ccc(C(F)(F)F)cc4C3)cc12 (stereo not drawn) [Compound 473, N-(5-((5-(trifluoromethyl)-2,3-dihydro-1H-inden-2-yl)oxy)-1H-indol-3-yl)acetamide]	1 to 5
CC(=O)Nc1c[nH]c2ccc(OCCC34CC(C(F)(F)F)(C3)C4)cc12 [Compound 474, N-(5-(2-(3-(trifluoromethyl)bicyclo[1.1.1]pentan-1-yl)ethoxy)-1H-indol-3-yl)acetamide]	0.2 to 1
CC(=O)Nc1c[nH]c2ccc(CCOc3ccc(-c4csc(C)n4)cc3)cc12 [Compound 475, N-(5-{2-[4-(2-methyl-1,3-thiazol-4-yl)phenoxy]ethyl} -1H-indol-3-yl)acetamide]	1 to 5
CC(=O)Nc1c[nH]c2ccc(CCOc3cc(Cl)cc(C#N)c3)cc12 [Compound 476, N-{5-[2-(3-chloro-5-cyanophenoxy)ethyl]-1H-indol-3-yl}acetamide]	1 to 5
CC(=O)Nc1c[nH]c2ccc(CCOc3cnc4c(OC(F)(F)F)cccc4c3)cc12 [Compound 477, N-[5-(2-{[8-(trifluoromethoxy)quinolin-3-yl]oxy}ethyl)-1H-indol-3-yl]acetamide]	1 to 5
CC(=O)Nc1c[nH]c2ccc(OCCC3CN(CC(F)(F)F)CC34CC4)cc12 (stereo not drawn) [Compound 478, N-(5-(2-(5-(2,2,2-trifluoroethyl)-5-azaspiro[2.4]heptan-7-yl)ethoxy)-1H-indol-3-yl)acetamide]	1 to 5
CC1(C(=O)Nc2c[nH]c3ccc(OC[C@@H]4C[C@@H]5CN(CC(F)(F)F)C[C@@H]5C4)cc23)COC1 [Compound 479, 3-methyl-N-(5-(((3aR,5r,6aS)-2-(2,2,2-trifluoroethyl)octahydrocyclopenta[c]pyrrol-5-yl)methoxy)-1H-indol-3-yl)oxetane-3-carboxamide]	0.04 to 0.2
CC(=O)Nc1c[nH]c2ccc(CCOc3cnc4ccc(OC(F)(F)F)cc4c3)cc12 [Compound 480, N-[5-(2-{[6-(trifluoromethoxy)quinolin-3-yl]oxy}ethyl)-1H-indol-3-yl]acetamide]	0.2 to 1
CC(=O)Nc1c[nH]c2ccc(CCOc3cncc(C(F)(F)F)c3)cc12 [Compound 481, N-[5-(2-{[5-(trifluoromethyl)pyridin-3-yl]oxy}ethyl)-1H-indol-3-yl]acetamide]	1 to 5
CC(=O)Nc1c[nH]c2ccc(CO[C@H]3C[C@H](c4ccc(C(F)(F)F)cc4)C3)cc12 [Compound 482, N-(5-((trans-3-(4-(trifluoromethyl)phenyl)cyclobutoxy)methyl)-1H-indol-3-yl)acetamide]	0.04 to 0.2
CC1(C(=O)Nc2c[nH]c3ccc(O[C@H]4C[C@H](c5ccc(C(F)(F)F)cc5)C4)cc23)CN(CC(F)F)C1 [Compound 483, 1-(2,2-difluoroethyl)-3-methyl-N-(5-(trans-3-(4-(trifluoromethyl)phenyl)cyclobutoxy)-1H-indol-3-yl)azetidine-3-carboxamide]	0.04 to 0.2
CC(=O)Nc1c[nH]c2ccc(OCCc3sc(C(F)(F)F)nc3C)cc12 [Compound 484, N-(5-(2-(4-methyl-2-(trifluoromethyl)thiazol-5-yl)ethoxy)-1H-indol-3-yl)acetamide]	1 to 5
CC1(C(=O)Nc2c[nH]c3ccc(OC[C@@H]4C[C@H]5CC[C@@H](C4)N5CC(F)(F)F)cc23)COC1 [Compound 485, 3-methyl-N-(5-(((1R,3s,5S)-8-(2,2,2-trifluoroethyl)-8-azabicyclo[3.2.1]octan-3-yl)methoxy)-1H-indol-3-yl)oxetane-3-carboxamide]	1 to 5
COCCOCC(=O)Nc1c[nH]c2ccc(O[C@H]3C[C@H](c4ccc(C(F)(F)F)cc4)C3)cc12 [Compound 486, 2-(2-methoxyethoxy)-N-{5-[(1R,3R)-3-[4-(trifluoromethyl)phenyl]cyclobutoxy]-1H-indol-3-yl}acetamide]	0.04 to 0.2
CC1(C(=O)Nc2c[nH]c3ccc(O[C@H]4C[C@H](c5ccc(C(F)(F)F)cc5)C4)cc23)CCCO1 (stereo partly drawn) [Compound 487, 2-methyl-N-{5-[(1R,3R)-3-[4-(trifluoromethyl)phenyl]cyclobutoxy]-1H-indol-3-yl}oxolane-2-carboxamide]	0.04 to 0.2
CC1(C(=O)Nc2c[nH]c3ccc(O[C@H]4C[C@H](c5ccc(C(F)(F)F)cc5)C4)cc23)CCOCC1 [Compound 488, 4-methyl-N-{5-[(1R,3R)-3-[4-(trifluoromethyl)phenyl]cyclobutoxy]-1H-indol-3-yl}oxane-4-carboxamide]	0.04 to 0.2
O=C(Nc1c[nH]c2ccc(O[C@H]3C[C@H](c4ccc(C(F)(F)F)cc4)C3)cc12)C1(F)CC1 [Compound 489, l-fluoro-N-{5-[(1R,3R)-3-[4-(trifluoromethyl)phenyl]cyclobutoxy]-1H-indol-3-yl}cyclopropane-1-carboxamide]	0.2 to 1
CC(=O)Nc1c[nH]c2ccc(CCOc3ccc4c(c3)CCCC4)cc12 [Compound 490, N-(5-[2-(5,6,7,8-tetrahydronaphthalen-2-yloxy)ethyl]-1H-indol-3-yl}acetamide]	0.04 to 0.2
CC(=O)Nc1c[nH]c2ccc(CCOc3ccnc(OC(F)F)c3)cc12 [Compound 491, N-[5-(2-{[2-(difluoromethoxy)pyridin-4-yl]oxy}ethyl)-1H-indol-3-yl]acetamide]	0.2 to 1
CC(=O)Nc1c[nH]c2ccc(COCC34CC(CN3CC(F)(F)F)C4)cc12 [Compound 492, N-(5-(((2-(2,2,2-trifluoroethyl)-2-azabicyclo[2.1.1]hexan-1-yl)methoxy)methyl)-1H-indol-3-yl)acetamide]	5 to 100
O=C(Nc1c[nH]c2ccc(O[C@H]3C[C@H](c4ccc(C(F)(F)F)cc4)C3)cc12)C1CCOCC1 [Compound 493, N-{5-[(1R,3R)-3-[4-(trifluoromethyl)phenyl]cyclobutoxy]-1H-indol-3-yl}oxane-4-carboxamide]	0.04 to 0.2
